Assay results published in a melting point compilation (Tetko et al.; mined from patent text by program, amines drawn as free bases though some values may be those of a salt).

First: CC(C)n1c(=O)ccc2cnc(Nc3cccc([N+](=O)[O-])c3)nc21
Second: O=c1c2c(Cc3ccccc3)n[nH]c2c2cccnc2n1-c1cccc([N+](=O)[O-])c1
The melting point of the first is lower: 202 to 203 °C for the first, 276 to 279 °C for the second.

`Nc1nc2c(c(=O)[nH]1)S[C@H](CCc1ccc(C(=O)O)s1)CN2` and `CC(Cc1ccc(C(=O)N[C@@H](CCC(=O)O)C(=O)O)cc1)C1CNc2nc(N)nc(O)c2C1` (stereo partly specified) cannot be ordered by melting point: 283 to 285 °C for the first, over 250 °C for the second.

Compared with `c1cn2nc(N3CCNCC3)ccc2n1`, `O=C1C(=Cc2ccccc2N2CCNCC2)SCCN1c1ccc(Cl)c(Cl)c1` is higher in melting point: 122 to 123 °C for the first, 154 to 155 °C for the second.

First: Cc1ccc(-c2nc(C(F)(F)F)nn2-c2ccc(S(C)(=O)=O)cc2)cc1
Second: CCc1c(CN(C)S(=O)(=O)c2cccc(Cl)c2)nn(-c2ccc(Cl)cc2Cl)c1-c1ccc(Br)cc1
The melting point of the first is higher: 176 to 178 °C for the first, 78 °C for the second.

First: OCC(O)Cc1nccn1CCCCc1ccc(OCc2coc(/C=C/c3ccc(F)cc3)n2)cc1 (stereo unspecified)
Second: COC(=O)C(Oc1ccc(CCCCCCCl)cc1)c1ccc(Sc2ccc(Cl)cc2)cc1 (stereo unspecified)
The melting point of the first is lower: 114 to 116 °C for the first, 122 to 124 °C for the second.

`CC(C)c1cccc(-c2nscc2C(=O)O)c1` and `CC(=O)c1ccccc1-c1cccc(C(=O)O)c1` cannot be ordered by melting point: 143 to 157 °C for the first, 143 °C for the second.

First: CC(C)(C)C(NC(=O)Cc1ccc2ccccc2c1)NC(=NC#N)Nc1cccc2ncccc12 (stereo unspecified)
Second: CC(C)CNC(=O)c1ccc(-c2ccc3nnn(Cc4ccc5ncccc5c4)c3n2)cc1F
The melting point of the first is higher: 200 to 201 °C for the first, 158 to 160 °C for the second.

First: CCOC(=O)CCCCOc1ccc2c(c1)CC1CC(=O)NC1=N2 (stereo unspecified)
Second: CCOC(=O)CC(O)c1ccc2c(c1)CC(CNS(=O)(=O)c1ccc(Cl)cc1)C2 (stereo unspecified)
The melting point of the first is higher: 180 °C for the first, 108 to 111 °C for the second.

First: C[C@@H](Cn1ncc2ccc(O)c(Br)c21)O[Si](C)(C)C(C)(C)C
Second: CC(C)(C)C(=O)c1c[nH]c2ncc(-c3ccoc3)nc12
The melting point of the first is lower: 103 to 105 °C for the first, 256 to 258 °C for the second.

First: COc1cccc(C2SCCCS2)c1OC
Second: NC(=O)C1CCCc2c(C(=O)O)cccc21 (stereo unspecified)
The melting point of the first is lower: 119 to 120 °C for the first, 247 to 249 °C for the second.

First: Cc1ccc(S(=O)(=O)N2CCC[C@@H]2C(=O)N[C@H](Cc2ccccc2)C(=O)O)cc1
Second: O=C(O)c1ccc(C(=O)NS(=O)(=O)c2ccccc2)cc1
The melting point of the first is lower: 71 to 75 °C for the first, 259 to 261 °C for the second.

First: COC(=O)c1cc(NN=C(c2ccccc2)c2ccccc2)c(C#N)s1
Second: O=C(Nc1ccc(Cl)c(C(F)(F)F)c1)N1NC(c2ccccc2)C(c2ccccc2)C1=O (stereo unspecified)
The melting point of the first is higher: 178 to 180 °C for the first, 72 to 74 °C for the second.

First: COc1ccc(C(=O)Nc2ccc3ccc(OCC(=O)N(C)C)nc3n2)cc1
Second: COCCOc1ccc2ccc(NC(=O)c3ccc(OC)cc3)nc2n1
The melting point of the first is higher: 165 °C for the first, 114 °C for the second.

First: CCCc1c(SCCCSc2ccc(-c3nnn[nH]3)cc2)ccc(C(C)=O)c1O
Second: c1ccc(SCCCSc2nnnn2-c2ccccc2)cc1
The melting point of the first is higher: 160 to 162 °C for the first, 57 to 59 °C for the second.

First: O=C(O)c1ccc(C(c2ccccc2)(C(F)(F)F)C(F)(F)F)cc1
Second: CC(O)(CC(=O)O)c1ccc(Oc2ccccc2)cc1 (stereo unspecified)
The melting point of the first is higher: 153 to 155 °C for the first, 137 to 138 °C for the second.

First: CC(C)=CCCC(C)=CCS(=O)c1ccc2ccccc2c1 (stereo unspecified)
Second: CCCc1c(C(=O)C(C)C)c2ccc(C(=O)O)cc2n1Cc1ccccc1I
The melting point of the first is lower: 74 to 76 °C for the first, 210 °C for the second.

Compared with `O=P(Oc1ccc(Oc2ccccc2)cc1)(Oc1ccc(Oc2ccccc2)cc1)c1ccccc1`, `COc1cc2nc(Cl)nc(N3CCN(C(=O)Nc4ccc(Oc5ccccc5)cc4)CC3)c2cc1OC` is higher in melting point: 92 to 93 °C for the first, 178 to 179 °C for the second.

Compared with `O=[N+]([O-])N=C1NCCCN1Cc1ccc(Cl)nc1`, `O=C1CC2(CCCC2)c2ccc([N+](=O)[O-])cc21` is lower in melting point: 113 to 117 °C for the first, 104 °C for the second.

First: C=C(c1ccc(OC)cc1)c1sc(C)nc1C
Second: Oc1ccc(Oc2ncc(Cl)cc2Cl)cc1
The melting point of the first is higher: 139 to 140 °C for the first, 122 to 124 °C for the second.

First: C=C(C)C(=O)Nc1cccc(O)c1
Second: CCOC(=O)c1ccc(NC(C)=O)cc1C(=O)OCC
The melting point of the first is higher: 171 to 173 °C for the first, 118 to 121 °C for the second.

First: NC(=O)[C@H]1CN(c2ccc(C3=CCOCC3)c(F)c2)C(=O)O1
Second: CC(C)OC(=O)c1nn(-c2ccc(Cl)cc2)c(=O)c2c(N)scc12
The melting point of the first is higher: 164 to 169 °C for the first, 118 to 120 °C for the second.

Compared with `O=C1c2ccccc2C(O)N1CCO[N+](=O)[O-]` (stereo unspecified), `CC(=O)Nc1ccc(OCCO[N+](=O)[O-])cc1` is lower in melting point: 143 to 145 °C for the first, 106 to 107 °C for the second.

First: CS(=O)(=O)C(Cl)(Cl)C(=O)c1ccccc1Cl
Second: Cc1c(Cl)cc(C(C)(C)C)c(O)c1C(=O)Oc1ccccc1
The melting point of the first is higher: 81 to 82 °C for the first, 68 to 69 °C for the second.

Compared with `Cc1ccc(OCCCl)c(C(N)=O)c1`, `CCOC(=O)c1c(S(N)=O)c2cc(C)ccc2n1C` (stereo unspecified) is higher in melting point: 111 to 113 °C for the first, 118 °C for the second.

Compared with `CN(N)C(=O)NC1c2ccccc2Oc2ccccc21`, `CCOC(=O)CN1Cc2ccccc2C[C@H](NC(=O)OCc2ccccc2)C1=O` is lower in melting point: 173 to 176 °C for the first, 80 to 82 °C for the second.

Compared with `Fc1ccc(Cn2c(NC3CCN(CCNc4ncccn4)CC3)nc3cncnc32)cc1`, `Fc1ccc(-c2nc3ccccn3c2-c2ccnc(-c3ccc(CN4CCCC4)cc3)c2)cc1F` is lower in melting point: 164 °C for the first, 155 °C for the second.

First: CC(C)(C)OC(=O)Nc1cc(N2CCC(OCCOC3CCCCO3)CC2)c(-c2ccc(F)cc2)cc1N (racemic)
Second: N#Cc1cc(NC(=O)c2csc3c2CCCC3)ccc1N1CCC(O)CC1
The melting point of the first is lower: 56 to 58 °C for the first, 172 to 173 °C for the second.

First: CCOC(=O)C1=C2NCCN2CCC1
Second: CCOC(=O)c1ccc(C#CC2(O)CN3CCC2CC3)cc1 (stereo unspecified)
The melting point of the first is lower: 89 °C for the first, 176 to 177 °C for the second.

Compared with `Cc1cc(CCCCCOc2c(C)cc(-c3nc(C)no3)cc2C)on1`, `CCOC(=O)COc1cc(-n2nc(C)c(Cl)c2C)c(F)cc1Cl` is higher in melting point: 54 to 56 °C for the first, 101 to 104 °C for the second.

First: CCOc1ccc2c(c1)n(C1CCCCC1)c(=O)n2Cc1ccc(NC(=NC#N)NC)cc1OC
Second: COc1cc2c(NC3CCCC3)c(C#N)cnc2cc1F
The melting point of the first is higher: 195 °C for the first, 162 to 164 °C for the second.

Compared with `Cc1ccc(NC(=O)C(C)(C)C)c(-c2cncc(Br)n2)c1`, `Cc1cnc(-c2ccncc2)nc1N` is higher in melting point: 74 to 76 °C for the first, 210 to 213 °C for the second.

First: O=C(Cc1cccc(C(F)(F)F)c1)Nc1c(Br)cccc1Br
Second: O=C(Nc1ccc(F)cc1)c1ccccn1
The melting point of the first is higher: 169 to 170 °C for the first, 100 to 103 °C for the second.

First: COc1cc2c3c4c(c(-c5ccccc5)cc3n(C)c2cc1CCCO)C(=O)NC4=O
Second: Cc1oc(-c2ccccc2)nc1CC=Cc1ccc(CCC2OC(=O)NC2=O)cc1 (stereo unspecified)
The melting point of the first is lower: 105 to 110 °C for the first, 175 to 176 °C for the second.

First: C#Cc1cc(Cl)cc2nc(Cc3cc(C(C)(C)C)c(O)c(C(C)(C)C)c3)oc12
Second: CCC(O)(CC(=O)OC(C)(C)C)c1ccn(Cc2cc3cc(OCc4ccccc4)c(F)cc3nc2I)c(=O)c1 (stereo unspecified)
The melting point of the first is lower: 152 to 155 °C for the first, 174 °C for the second.

First: OC1CC2(CCNC2)c2ccc(Cl)c(Cl)c21 (stereo unspecified)
Second: Clc1cccc(-c2nc(-c3ccccn3)no2)c1Cl
The melting point of the first is higher: 167 to 170 °C for the first, 128 to 133 °C for the second.

First: CC(=O)Nc1cc(Oc2ccc3c(C(=O)Nc4ccc(CN5CCN(C)CC5)cc4)cccc3c2)ncn1
Second: NC(=O)Cc1cc(Oc2ccc3c(ccn3C(=O)Nc3ccc(N4CCS(=O)(=O)CC4)c(C(F)(F)F)c3)c2)ncn1
The melting point of the first is lower: 238 to 242 °C for the first, 284 to 285 °C for the second.

Compared with `CC(C)(C)OC(=O)CC[C@@H](NC(=O)OCc1ccccc1)C(N)=O`, `CC(C)C(c1cncnc1C=NO)N(C)C(=O)Cc1ccccc1` (stereo unspecified) is higher in melting point: 138 to 140 °C for the first, 171 to 172 °C for the second.

First: Cc1ccc(C(=O)C2=C(O)C(=O)N(c3ccc(C)nn3)C2c2ccc(OC3CCN(C)CC3)cc2)cc1 (stereo unspecified)
Second: CN1CCC(CC(=O)N2c3ccccc3NC(=O)c3cscc32)CC1
The melting point of the first is higher: 259 to 260 °C for the first, 184 to 185 °C for the second.

Compared with `CCn1cc(C(F)(F)F)c(=O)[nH]c1=O`, `CCOC(=O)CCNC(=S)Nc1ccc2cn[nH]c2c1` is lower in melting point: 259 to 260 °C for the first, 145 °C for the second.

First: CN(C)C=NC(=O)c1cc2c(cn1)[nH]c1ccccc12
Second: CN(C)CCCN1c2ccccc2N(C)C(=O)c2cccnc21
The melting point of the first is higher: 254 to 257 °C for the first, 98.5 to 100 °C for the second.

First: O=C(O)CCCCc1cccc2cncn12
Second: O=C(CCc1ccc(Cl)cc1)Cn1ccnc1
The melting point of the first is lower: 161 to 163 °C for the first, 172 to 174 °C for the second.

First: CC(C)(O)Cn1cnc2c(N)nc3cc(CCC(=O)N4CCOCC4)ccc3c21
Second: Cc1nc2c(N)nc3cccnc3c2n1CC1(O)CCN(C(=O)OC(C)(C)C)CC1
The melting point of the first is lower: 217 to 218 °C for the first, 233 to 235 °C for the second.

First: CC(=O)C1(Nc2ccccc2)CCN(CCc2ccccc2)CC1
Second: S=C1CC(c2ccccc2)=Nc2ccccc2N1
The melting point of the first is lower: 101 °C for the first, 228 to 230 °C for the second.

First: O=S(=O)(c1ccc(Br)cc1)N1C=CC=NC=C1
Second: O=c1ccc(-c2ccc(Cc3nn[nH]n3)cc2)cn1Cc1ccc(Cl)cc1
The melting point of the first is lower: 95 to 97 °C for the first, 231 °C for the second.

First: CNC(=C[N+](=O)[O-])NOCCCc1csc(NC(=N)N)n1
Second: CNC(=S)NCCCNc1ccccn1
The melting point of the first is higher: 144 to 146 °C for the first, 134 to 135 °C for the second.

Compared with `Cc1oc(-c2ccco2)nc1COc1ccc(COc2nn(Cc3ccccc3)cc2C=O)cc1OCc1ccccc1`, `COCc1cccc(CNC(=O)c2nc3scc(COCc4ccc(C(=O)O)cc4)c3c(=O)[nH]2)c1` is higher in melting point: 130 to 131 °C for the first, 242 to 244 °C for the second.

First: CN1Cc2cccc(S(N)(=O)=O)c2S1(=O)=O
Second: COC(=O)Nc1ccc(CN2OCC(C)(C)C2=O)c(Cl)c1
The melting point of the first is higher: 195 to 197 °C for the first, 165 to 167 °C for the second.

First: CC(C)(CO)NC(=O)c1nn(-c2ccc(F)cc2F)c2c1C1CCC2C1 (stereo unspecified)
Second: COC(=O)n1nc(-c2cc(Cl)c(C)c(Cl)c2)ccc1=O
The melting point of the first is lower: 142 to 144 °C for the first, 203 to 206 °C for the second.

First: O=C(Nc1ccc(F)cc1)OCC1CSC2=C(O1)c1ccccc1C(=O)C2=O (stereo unspecified)
Second: COc1ccc(COCC(O)Cn2ccnc2)cc1 (stereo unspecified)
The melting point of the first is higher: 235 to 237 °C for the first, 96 to 98 °C for the second.

First: S=c1n(N=Cc2ccccc2)ccn1N=Cc1ccccc1
Second: Clc1c(NC2=NCCN2)ccc2nsnc12
The melting point of the first is lower: 215 to 218 °C for the first, 232 to 235 °C for the second.

For `CC1(C)CC(CCCCNc2nc(Cl)nc(NCCCCC3CC(C)(C)NC(C)(C)C3)n2)CC(C)(C)N1`, the melting point was 40 to 42 °C.
